{
  "source": "paper PMC11206519",
  "about": "“Multi-Endpoint Toxicological Assessment of Chrysin Loaded Oil-in-Water Emulsion System in Different Biological Models” (Nanomaterials, 2024)",
  "key": {"S. typhimurium TA 100": {"system": "S. typhimurium TA 100", "assay": "Ames test, mutagenicity", "assay_type": "cell-based, Salmonella Typhimurium", "settings": "positive control", "protocol": "(§1) The S. typhimurium strains TA 98 and TA 100 were used to detect frameshift and base-pair mutations, respectively. […] Then, they were poured onto minimal glucose agar containing a trace amount of histidine, following incubation at 37 °C for 48 h. Then, the revertant colonies were counted and compared with the negative control. If the number of revertant colonies in the tested sample treatment is at least twice that of the negative control (spontaneous revertant colonies), it is considered a mutagen."}, "S. typhimurium TA 98": {"system": "S. typhimurium TA 98", "assay": "Ames test, mutagenicity", "assay_type": "cell-based, Salmonella Typhimurium", "settings": "+S9; 0.5 µg/plate, positive control", "protocol": "as §1"}, "[1]": {"system": "D. melanogaster trans-heterozygous mwh+/+flr3 larvae of the ST cross", "assay": "SMART wing spot test, anti-mutagenicity, ST cross", "protocol": "(§2) The somatic mutation and recombination test, or the wing spot test, using D. melanogaster was employed as an in vivo system to assess the mutagenicity and anti-mutagenicity of chrysin-ES. Two different crosses were conducted: (i) a standard cross (ST) and (ii) a high bioactivation cross (HB). The standard cross larvae were obtained from virgin female of flr3/TM3, Ser crossed with males of mwh/mwh, while the HB cross larvae expressing cytochrome P450 enzymes involved in xenobiotic biotransformation were obtained from virgin females of ORR/ORR; flr^3/In (3LR) TM3, ri p^psep l (3)89Aa bx^34e e Bd^s crossed with males of mwh/mwh. The flies were cultured at a constant temperature of 25 ± 1 °C and 60–70% RH at photoperiod 12:12 (light/dark). To evaluate the mutagenicity of chrysin and chrysin-ES, a hundred larva F1 progenies derived from the above crossing were fed with instant Drosophila medium (Formula 4-24®), Carolina, Burlington, NC, USA) containing chrysin or chrysin-ES (20–120 µg/mL). DI was used as a negative control, while 20 mM urethane (URE) was used as a positive control. The larvae were reared on each medium until pupation at 25 °C. After that, forty wings of surviving flies in each group were collected for mutant analysis. The mutant spots on the wings, including small single spots, large single spots, and twin spots, were counted. The statistical significance was calculated as previously described by Frei and Würgler.\n(§3) Furthermore, the anti-mutagenicity of the samples was performed by a similar procedure as mentioned above."}, "[2]": {"system": "D. melanogaster trans-heterozygous mwh+/+flr3 larvae of the HB cross", "assay": "SMART wing spot test, anti-mutagenicity, HB cross", "protocol": "as §2, §3"}, "S. typhimurium TA100": {"system": "S. typhimurium TA100", "assay": "Ames test, anti-mutagenicity", "settings": "standard mutagen alone, 0.05 µg/plate, +S9", "protocol": "(§4) Furthermore, the anti-mutagenicity of the samples was performed by a similar procedure, as mentioned above. […] The percentage inhibition (decrease revertant colony number) was calculated as in the following equation:Anti-mutagenicity (%) = [1 − (b/a)] × 100 • a = revertant colony number induced via standard mutagen (positive control). • b = revertant colony number induced by standard mutagen in the presence of each sample treatment.\n(§5) The percent of inhibition between 0–20%, 21–40%, 41–60%, and higher than 60% indicate negligible, weak, moderate, and strong anti-mutagenicity, respectively."}, "S. typhimurium TA98": {"system": "S. typhimurium TA98", "assay": "Ames test, anti-mutagenicity", "settings": "standard mutagen alone, 0.1 µg/plate, +S9", "protocol": "as §4, §5"}, "[3]": {"system": "D. melanogaster trans-heterozygous mwh+/+flr3 larvae of the ST cross", "assay": "SMART wing spot test, mutagenicity, ST cross", "assay_type": "in vivo, Drosophila melanogaster", "settings": "20 mM, positive control", "description": "(§6) The somatic mutation and recombination test, or the wing spot test, using D. melanogaster was employed as an in vivo system to assess the mutagenicity and anti-mutagenicity of chrysin-ES. Two different crosses were conducted: (i) a standard cross (ST) and (ii) a high bioactivation cross (HB) [18]. The standard cross larvae were obtained from virgin female of flr3/TM3, Ser crossed with males of mwh/mwh, while the HB cross larvae expressing cytochrome P450 enzymes involved in xenobiotic biotransformation were obtained from virgin females of ORR/ORR; flr^3/In (3LR) TM3, ri p^psep l (3)89Aa bx^34e e Bd^s crossed with males of mwh/mwh. The flies were cultured at a constant temperature of 25 ± 1 °C and 60–70% RH at photoperiod 12:12 (light/dark). To evaluate the mutagenicity of chrysin and chrysin-ES, a hundred larva F1 progenies derived from the above crossing were fed with instant Drosophila medium (Formula 4-24®), Carolina, Burlington, NC, USA) containing chrysin or chrysin-ES (20–120 µg/mL). DI was used as a negative control, while 20 mM urethane (URE) was used as a positive control. The larvae were reared on each medium until pupation at 25 °C. After that, forty wings of surviving flies in each group were collected for mutant analysis. The mutant spots on the wings, including small single spots, large single spots, and twin spots, were counted."}, "[4]": {"system": "D. melanogaster trans-heterozygous mwh+/+flr3 larvae of the HB cross", "assay": "SMART wing spot test, mutagenicity, HB cross", "assay_type": "in vivo, Drosophila melanogaster", "settings": "20 mM, positive control", "description": "as §6"}, "[5]": {"settings": "NMU alone (sodium nitrite 36 mM: methylurea 10 mM)"}, "[6]": {"settings": "Nitrite alone (sodium nitrite 36 mM)"}},
  "note": "“And” between values parts separate entries of the source, which are not always exact repeats. Identical values can stand only once.",
  "data": [
    {"smiles": "Nc1ccc2cc3ccccc3cc2c1", "note": "[2-AA, 2-Aminoanthracene, reference compound]", "values": [
      {"measurement": "Number of Revertant Colonies", "setting": "S. typhimurium TA 100; +S9, 0.5 µg/plate", "value": "487 ± 29"},
      {"measurement": "Number of Revertant Colonies", "setting": "S. typhimurium TA 98", "value": "459 ± 44"}
    ]},
    {"smiles": "NC(=O)C(=Cc1ccc([N+](=O)[O-])o1)c1ccco1", "note": "[AF-2, 2-(2-Furyl)-3-(5-nitro-2-furyl) acrylamide, reference compound]", "values": [
      {"measurement": "Number of Revertant Colonies", "setting": "S. typhimurium TA 100; −S9, 0.1 µg/plate", "value": "439 ± 30"}
    ]},
    {"smiles": "CCOS(C)(=O)=O", "note": "[EMS, ethyl methanesulfonate, reference compound]", "values": [
      {"measurement": "Mutant spots per individual (number of spots), Large Single", "setting": "[1]; EMS 5 mM alone", "value": "1.75 (70)"},
      {"measurement": "Mutant spots per individual (number of spots), Small Single", "setting": "[1]; EMS 5 mM alone", "value": "5.60 (224)"},
      {"measurement": "Mutant spots per individual (number of spots), Total", "setting": "[1]; EMS 5 mM alone", "value": "7.80 (312)"},
      {"measurement": "Mutant spots per individual (number of spots), Twin", "setting": "[1]; EMS 5 mM alone", "value": "0.45 (18)"},
      {"measurement": "Statistical diagnosis, Large Single", "setting": "[1]; EMS 5 mM alone, vs DI", "value": "+"},
      {"measurement": "Statistical diagnosis, Small Single", "setting": "[1]; EMS 5 mM alone, vs DI", "value": "+"},
      {"measurement": "Statistical diagnosis, Total", "setting": "[1]; EMS 5 mM alone, vs DI", "value": "+"},
      {"measurement": "Statistical diagnosis, Twin", "setting": "[1]; EMS 5 mM alone, vs DI", "value": "+"},
      {"measurement": "Mutant spots per individual (number of spots), Large Single", "setting": "[2]; EMS 5 mM alone", "value": "0.40 (16)"},
      {"measurement": "Mutant spots per individual (number of spots), Small Single", "setting": "[2]; EMS 5 mM alone", "value": "10.00 (400)"},
      {"measurement": "Mutant spots per individual (number of spots), Total", "setting": "[2]; EMS 5 mM alone", "value": "10.40 (416)"},
      {"measurement": "Mutant spots per individual (number of spots), Twin", "setting": "[2]; EMS 5 mM alone", "value": "0 (0)"},
      {"measurement": "Statistical diagnosis, Large Single", "setting": "[2]; EMS 5 mM alone, vs DI", "value": "+"},
      {"measurement": "Statistical diagnosis, Small Single", "setting": "[2]; EMS 5 mM alone, vs DI", "value": "+"}
    ]},
    {"smiles": "Cn1c(N)nc2c3cccnc3ccc21", "note": "[IQ, 2-Amino-3-methylimidazo(4,5-f) quinoline, reference compound]", "values": [
      {"measurement": "Number of Revertant Colonies", "setting": "S. typhimurium TA100", "value": "730 ± 39"}
    ]},
    {"smiles": "CNC(N)=O", "note": "[Methylurea, methylurea, reference compound]", "values": [
      {"measurement": "Statistical diagnosis, Small Single", "setting": "[1]; in vivo", "value": "−"},
      {"measurement": "Statistical diagnosis, Total", "setting": "[1]; in vivo", "value": "−"},
      {"measurement": "Statistical diagnosis, Small Single", "setting": "[2]; in vivo", "value": "−"}
    ]},
    {"smiles": "CN(N=O)C(N)=O", "note": "[NMU, N-nitrosomethylurea, reference compound]", "values": [
      {"measurement": "Mutant spots per individual (number of spots), Large Single", "setting": "[1]; [5]", "value": "0.10 (4)"},
      {"measurement": "Mutant spots per individual (number of spots), Small Single", "setting": "[1]; [5]", "value": "1.70 (68)"},
      {"measurement": "Mutant spots per individual (number of spots), Total", "setting": "[1]; [5]", "value": "2.00 (80)"},
      {"measurement": "Mutant spots per individual (number of spots), Twin", "setting": "[1]; [5]", "value": "0.20 (8)"},
      {"measurement": "Statistical diagnosis, Small Single", "setting": "[1]; NMU alone, vs DI", "value": "+"},
      {"measurement": "Statistical diagnosis, Total", "setting": "[1]; NMU alone, vs DI", "value": "+"},
      {"measurement": "Statistical diagnosis, Twin", "setting": "[1]; NMU alone, vs DI", "value": "+"},
      {"measurement": "Mutant spots per individual (number of spots), Large Single", "setting": "[2]; [5]", "value": "0.40 (16)"},
      {"measurement": "Mutant spots per individual (number of spots), Small Single", "setting": "[2]; [5]", "value": "1.43 (57)"},
      {"measurement": "Mutant spots per individual (number of spots), Total", "setting": "[2]; [5]", "value": "1.93 (77)"},
      {"measurement": "Mutant spots per individual (number of spots), Twin", "setting": "[2]; [5]", "value": "0.10 (4)"},
      {"measurement": "Statistical diagnosis, Large Single", "setting": "[2]; NMU alone, vs DI", "value": "+"},
      {"measurement": "Statistical diagnosis, Small Single", "setting": "[2]; NMU alone, vs DI", "value": "−"},
      {"measurement": "Statistical diagnosis, Total", "setting": "[2]; NMU alone, vs DI", "value": "+"}
    ]},
    {"smiles": "O=N[O-].[Na+]", "note": "[Nitrite, sodium nitrite, reference compound]", "values": [
      {"measurement": "Mutant spots per individual (number of spots), Large Single", "setting": "[1]; [6]", "value": "0 (0)"},
      {"measurement": "Mutant spots per individual (number of spots), Small Single", "setting": "[1]; [6]", "value": "0.05 (2)"},
      {"measurement": "Mutant spots per individual (number of spots), Total", "setting": "[1]; [6]", "value": "0.08 (3)"},
      {"measurement": "Mutant spots per individual (number of spots), Twin", "setting": "[1]; [6]", "value": "0.03 (1)"},
      {"measurement": "Statistical diagnosis, Small Single", "setting": "[1]; Nitrite alone, vs DI", "value": "−"},
      {"measurement": "Statistical diagnosis, Total", "setting": "[1]; Nitrite alone, vs DI", "value": "−"},
      {"measurement": "Mutant spots per individual (number of spots), Large Single", "setting": "[2]; [6]", "value": "0.03 (1)"},
      {"measurement": "Mutant spots per individual (number of spots), Small Single", "setting": "[2]; [6]", "value": "0.25 (10)"},
      {"measurement": "Mutant spots per individual (number of spots), Total", "setting": "[2]; [6]", "value": "0.28 (11)"},
      {"measurement": "Mutant spots per individual (number of spots), Twin", "setting": "[2]; [6]", "value": "0 (0)"},
      {"measurement": "Statistical diagnosis, Small Single", "setting": "[2]; Nitrite alone, vs DI", "value": "−"}
    ]},
    {"smiles": "Cn1c(N)nc2ncc(-c3ccccc3)cc21", "note": "[PhIP, 2-amino-1-methyl-6-phenylimidazo (4,5-b) pyridine, reference compound]", "values": [
      {"measurement": "Number of Revertant Colonies", "setting": "S. typhimurium TA98", "value": "400 ± 11"}
    ]},
    {"smiles": "CCOC(N)=O", "note": "[URE, urethane, reference compound]", "values": [
      {"measurement": "Mutant spots per individual (number of spots), Large Single", "setting": "[3]", "value": "0.08 (3)"},
      {"measurement": "Mutant spots per individual (number of spots), Small Single", "setting": "[3]", "value": "3.73 (149)"},
      {"measurement": "Mutant spots per individual (number of spots), Total Spots", "setting": "[3]", "value": "3.80 and 3.80 (152)"},
      {"measurement": "Mutant spots per individual (number of spots), Twin", "setting": "[3]", "value": "0 (0)"},
      {"measurement": "Statistical diagnosis, Large Single", "setting": "[3]; vs DI", "value": "+"},
      {"measurement": "Statistical diagnosis, Small Single", "setting": "[3]; vs DI", "value": "+"},
      {"measurement": "Statistical diagnosis, Total Spots", "setting": "[3]; vs DI", "value": "+"},
      {"measurement": "Mutant spots per individual (number of spots), Large Single", "setting": "[4]", "value": "3.10 (62)"},
      {"measurement": "Mutant spots per individual (number of spots), Small Single", "setting": "[4]", "value": "10.10 (202)"},
      {"measurement": "Mutant spots per individual (number of spots), Total Spots", "setting": "[4]", "value": "14.50 and 14.50 (290)"},
      {"measurement": "Mutant spots per individual (number of spots), Twin", "setting": "[4]", "value": "1.30 (26)"},
      {"measurement": "Statistical diagnosis, Large Single", "setting": "[4]; vs DI", "value": "+"},
      {"measurement": "Statistical diagnosis, Small Single", "setting": "[4]; vs DI", "value": "+"},
      {"measurement": "Statistical diagnosis, Total Spots", "setting": "[4]; vs DI", "value": "+"},
      {"measurement": "Statistical diagnosis, Twin", "setting": "[4]; vs DI", "value": "+"}
    ]}
  ]
}
